The subject of one experiment is Wnt/β-catenin. In words: β-catenin stabilization (Wnt pathway activation) in RKO cells (Western blot). It counts as cell-based. More on the design: concentration at which β-catenin was stabilized: unit not given here. As to conditions: for β-Catenin activity: 16 hours, Western blot. Here is the method:
(§1) Primary Screen in RKO cells for compounds having typical CKIα inhibitory activity (β-catenin and p53 stabilization and histone H2AX phosphorylation; see Elyada et al, Nature 2011 Feb. 17; 470(7334):409-13; Pribluda et al, Cancer Cell 2013 Aug. 12; 24(2):242-56). RKO colorectal cells were incubated with 10 μM of each of the compounds for 16 hours at 37° C. Cells were washed with PBS and cell pellets were incubated with ice cold protein lysis buffer containing protease inhibitor cocktail (1/200; Calbiochem) and phosphatase inhibitors (20 mM p-nitrophenyl phosphate (PNPP), 20 mM β-glycerophosphate and 300 nM okadaic acid). Western blot analysis was performed by means of standard techniques. Blots were incubated with antibodies detecting β-catenin (1/2,500; BD Transduction), p53 (DO-1&1801 hybridoma mix; dilution of 1:20 of supernatants from each), CKIα (C-19; 1/1,000; Santa Cruz Biotechnology) and phospho-histoneH2AX (S139; 1/1,000; Millipore). Secondary antibodies were HRP-linked goat anti-mouse, goat anti-rabbit and rabbit anti-goat antibodies (all 1/10,000; Jackson). Blots were developed using ECL (GE Healthcare).
(§2) Active compounds were further analyzed in a dose-response experiment (FIGS. 1A and 1B). Similar to the primary screen, RKO cells were incubated with descending concentrations of each of the active compounds for 16 hours at 37° C. Cell extract isolation and Western Blot analysis were similar to the primary screen.
(§3) Table 1 provides quantified information for compounds of the invention in activation of p53 and DNA damage response (DDR) and β-catenin stabilization as an indicator of Wnt pathway activation. p53 activation was determined according to the degree of protein stabilization in several Western blot assays (Western blot examples are shown in FIGS. 1A and 1B). […] In contrast, A35 started stabilizing p53 at […], with maximal stabilization at […] (FIG. 1A, upper right panel) and thus received an average value of +++ for p53 activation.

The test system of experiment [1] is p53, DNA damage response (γH2AX). In words: p53 and DNA damage response activation in RKO cells (Western blot, primary screen and dose response). More on the design: p53 stabilization: dose or concentration left out as unconfirmed. Conditions: for DDR & p53 activity: 16 hours, Western blot, average value. The class given is cell-based. Here is the method: as §1, §2, §3

In the case of `CC(C)n1ncc(-c2ccnc(N[C@H]3CC[C@H](N)CC3)n2)c1CC1CCC1` [Compound A53, (1R,4R)—N^1-(4-(5-(cyclobutylmethyl)-1-isopropyl-1H-pyrazol-4-yl)pyrimidin-2-yl)cyclohexane-1,4-diamine], the β-Catenin activity entry in the experiment on Wnt/β-catenin was “+ (+ indicates low, yet significant activation at a compound concentration of 6 μM)”. In addition, the “DDR & p53 activity” value in experiment [1] is given as “+ (+ indicates low, yet significant activation at a compound concentration of 6 μM)”.
In the case of `Cn1ncc(-c2ccnc(NC3CCC4(CC3)COC(=O)N4)n2)c1CC1CC1` (stereo not shown) [Compound A26, 8-((4-(5-(cyclopropylmethyl)-1-methyl-1H-pyrazol-4-yl)pyrimidin-2-yl)amino)-3-oxa-1-azaspiro[4.5]decan-2-one], the β-Catenin activity entry in the experiment with Wnt/β-catenin is “+ (+ indicates low, yet significant activation at a compound concentration of 6 μM)”. Also, the “DDR & p53 activity” value in experiment [1] is on record as “+ (+ indicates low, yet significant activation at a compound concentration of 6 μM)”.
As to `Cn1ncc(-c2nc(NC3CCC(N)CC3)ncc2F)c1CC1CC1` [Compound A86, (1R,4R)—N^1-(4-(5-(cyclopropylmethyl)-1-methyl-1H-pyrazol-4-yl)-5-fluoropyrimidin-2-yl)cyclohexane-1,4-diamine], in the experiment with Wnt/β-catenin, the β-Catenin activity entry was “+++ (+++ indicates maximal β-catenin or p53 stabilization at >2 μM)”. Besides, the “DDR & p53 activity” value in experiment [1] was “+++++ (+++++ indicates maximal activation of p53 and DDR at >0.1 μM)”.
In the case of `Cn1ncc(-c2ccnc(N[C@H]3CC[C@H](N)CC3)n2)c1CC1CCC1` [Compound A45, (1R, 4R)—N^1-(4-(5-(cyclobutylmethyl)-1-methyl-1H-pyrazol-4-yl)pyrimidin-2-yl)cyclohexane-1,4-diamine], the β-Catenin activity entry in the experiment on Wnt/β-catenin was “+ (+ indicates low, yet significant activation at a compound concentration of 6 μM)”.
Regarding `Cn1ncc(-c2ccnc(NC3CCC4(CC3)NC(=O)NC4=O)n2)c1CC1CC1` (stereo not shown) [Compound A19-4, 8-((4-(5-(cyclopropylmethyl)-1-methyl-1H-pyrazol-4-yl)pyrimidin-2-yl)amino)-1,3-diazaspiro[4.5]decane-2,4-dione], the β-Catenin activity result with Wnt/β-catenin was “+++ (+++ indicates maximal β-catenin or p53 stabilization at >2 μM)”. Moreover, the “concentration at which β-catenin was stabilized” value in the experiment on Wnt/β-catenin (FIG. 1A) came out at 2. The “p53 stabilization and γH2AX induction (in words)” value in experiment [1] (FIG. 1A) is recorded as “neither stabilized p53, nor induced γH2AX”.
With `Cn1ncc(-c2nc(N[C@H]3CC[C@H](Nc4ccccc4)CC3)ncc2Cl)c1CC1CC1` [Compound A68, (1R,4R)—N^1-(5-chloro-4-(5-(cyclopropylmethyl)-1-methyl-1H-pyrazol-4-yl)pyrimidin-2-yl)-N^4-phenylcyclohexane-1,4-diamine], the β-Catenin activity entry in the experiment with Wnt/β-catenin is given as “+ (+ indicates low, yet significant activation at a compound concentration of 6 μM)”. Moreover, in experiment [1], the “DDR & p53 activity” value is listed as “+ (+ indicates low, yet significant activation at a compound concentration of 6 μM)”.
With `Cn1ncc(-c2ccnc(NC3CCC(N)(CO)CC3)n2)c1CC1CC1` (stereo not shown) [Compound A19, (1-amino-4-((4-(5-(cyclopropylmethyl)-1-methyl-1H-pyrazol-4-yl)pyrimidin-2-yl)amino)cyclohexyl)methanol], in the experiment with Wnt/β-catenin, the β-Catenin activity result is “+ (+ indicates low, yet significant activation at a compound concentration of 6 μM)”. Moreover, the “DDR & p53 activity” value in experiment [1] is listed as “+ (+ indicates low, yet significant activation at a compound concentration of 6 μM)”.
As for `Cn1ncc(-c2ccnc(N[C@H]3CC[C@H](N4CCCCC4)CC3)n2)c1CC1CC1` [Compound A47, 4-(5-(cyclopropylmethyl)-1-methyl-1H-pyrazol-4-yl)-N-((1R,4R)-4-(piperidin-1-yl)cyclohexyl)pyrimidin-2-amine], in the experiment on Wnt/β-catenin, the β-Catenin activity result is listed as “+ (+ indicates low, yet significant activation at a compound concentration of 6 μM)”.
Turning to `N[C@H]1CC[C@H](Nc2nccc(-c3cnn(C4COC4)c3CC3CC3)n2)CC1` [Compound A43, (1R, 4R)—N^1-(4-(5-(cyclopropylmethyl)-1-(oxetan-3-yl)-1H-pyrazol-4-yl)pyrimidin-2-yl)cyclohexane-1,4-diamine], in experiment [1], the “DDR & p53 activity” value is reported as “+ (+ indicates low, yet significant activation at a compound concentration of 6 μM)”. Besides, in experiment [1] (FIG. 1A), the concentration at which p53 stabilization starts / is significantly above non-treatment control amounted to 6 µM and the p53 stabilization entry was “no activity”.
As for `Cn1ncc(-c2ccnc(N[C@H]3CC[C@H](N(C)C)CC3)n2)c1CC1CC1` [Compound A28, (1r, 4r)-N^1-(4-(5-(cyclopropylmethyl)-1-methyl-1H-pyrazol-4-yl)pyrimidin-2-yl)-N4,N4-dimethylcyclohexane-1,4-diamine], the β-Catenin activity entry in the experiment on Wnt/β-catenin is “+++ (+++ indicates maximal β-catenin or p53 stabilization at >2 μM)”.
Consider `CC(C)n1ncc(-c2ccnc(N[C@H]3CC[C@H](N)CC3)n2)c1CC1CC1` [Compound A35, (1r, 4r)-N^1-(4-(5-(cyclopropylmethyl)-1-isopropyl-1H-pyrazol-4-yl)pyrimidin-2-yl)cyclohexane-1,4-diamine], for which the “DDR & p53 activity” value in experiment [1] is listed as “+++ (+++ indicates maximal β-catenin or p53 stabilization at >2 μM)”. In experiment [1] (FIG. 1A), this molecule had a concentration at which p53 stabilization starts / is significantly above non-treatment control of 0.2 µM and a concentration of maximal p53 stabilization of 1 µM.
As for `N[C@H]1CC[C@H](Nc2nccc(-c3cnn(C4CCCOC4)c3CC3CC3)n2)CC1` (stereo partly drawn) [Compound A38, (1R, 4R)—N^1-(4-(5-(cyclopropylmethyl)-1-(tetrahydro-2H-pyran-3-yl)-1H-pyrazol-4-yl)pyrimidin-2-yl)cyclohexane-1,4-diamine], in the experiment with Wnt/β-catenin, the β-Catenin activity entry is listed as “+ (+ indicates low, yet significant activation at a compound concentration of 6 μM)”. Also, in experiment [1], the “DDR & p53 activity” value is “+ (+ indicates low, yet significant activation at a compound concentration of 6 μM)”.
As to `Cn1ncc(-c2nc(NC3CCC(NCc4cn[nH]c4)CC3)ncc2Cl)c1CC1CC1` [Compound A75, (1R,4R)—N^1-((1H-pyrazol-4-yl)methyl)-N^4-(5-chloro-4-(5-(cyclopropylmethyl)-1-methyl-1H-pyrazol-4-yl)pyrimidin-2-yl)cyclohexane-1,4-diamine], the β-Catenin activity entry in the experiment with Wnt/β-catenin is given as “+++ (+++ indicates maximal β-catenin or p53 stabilization at >2 μM)”. Besides, the “DDR & p53 activity” value in experiment [1] was “+++++ (+++++ indicates maximal activation of p53 and DDR at >0.1 μM)”.
Turning to `Cn1ncc(-c2nc(N[C@H]3CC[C@H](NC(=O)c4cn[nH]c4)CC3)ncc2Cl)c1CC1CC1` [Compound A87, N-((1R,4R)-4-((5-chloro-4-(5-(cyclopropylmethyl)-1-methyl-1H-pyrazol-4-yl)pyrimidin-2-yl)amino)cyclohexyl)-1H-pyrazole-4-carboxamide], the β-Catenin activity result in the experiment on Wnt/β-catenin was “+++ (+++ indicates maximal β-catenin or p53 stabilization at >2 μM)”. Moreover, the “DDR & p53 activity” value in experiment [1] is on record as “+ (+ indicates low, yet significant activation at a compound concentration of 6 μM)”.
`CC(C)n1ncc(-c2nc(N[C@H]3CC[C@H](N)CC3)ncc2Cl)c1CC1CC1` [Compound A59, (1R,4R)—N^1-(5-chloro-4-(5-(cyclopropylmethyl)-1-isopropyl-1H-pyrazol-4-yl)pyrimidin-2-yl)cyclohexane-1,4-diamine]: the “DDR & p53 activity” value in experiment [1] is given as “+++ (+++ indicates maximal β-catenin or p53 stabilization at >2 μM)”.
Still for that read-out and setting: in the case of `Cn1ncc(-c2nc(N[C@H]3CC[C@H](NCC(F)(F)F)CC3)ncc2Cl)c1CC1CC1` [Compound A94, (1R,4R)—N^1-(5-chloro-4-(5-(cyclopropylmethyl)-1-methyl-1H-pyrazol-4-yl)pyrimidin-2-yl)-N^4-(2,2,2-trifluoroethyl)cyclohexane-1,4-diamine] it was “+ (+ indicates low, yet significant activation at a compound concentration of 6 μM)”.
Consider `Cn1ncc(-c2ccnc(N[C@H]3CC[C@H](N4CCOCC4)CC3)n2)c1CC1CC1` [Compound A48, 4-(5-(cyclopropylmethyl)-1-methyl-1H-pyrazol-4-yl)-N-((1r, 4r)-4-morpholinocyclohexyl)pyrimidin-2-amine], for which the β-Catenin activity entry with Wnt/β-catenin is listed as “+ (+ indicates low, yet significant activation at a compound concentration of 6 μM)”. Besides, the “DDR & p53 activity” value in experiment [1] was “+ (+ indicates low, yet significant activation at a compound concentration of 6 μM)”.
On to `Cn1ncc(-c2nc(NC3CCC(NCc4cn[nH]c4)CC3)ncc2F)c1CC1CC1` [Compound A85, (1R,4R)—N^1-((1H-pyrazol-4-yl)methyl)-N^4-(4-(5-(cyclopropylmethyl)-1-methyl-1H-pyrazol-4-yl)-5-fluoropyrimidin-2-yl)cyclohexane-1,4-diamine], for which, in the experiment on Wnt/β-catenin, the β-Catenin activity result is listed as “+++ (+++ indicates maximal β-catenin or p53 stabilization at >2 μM)”. For the same molecule, the “DDR & p53 activity” value in experiment [1] is on record as “+++ (+++ indicates maximal β-catenin or p53 stabilization at >2 μM)”.

Source of the values: patent publication US12514859B2, “Pyrazole pyrimidine derivative and uses thereof” (Yissum Research Development Company of the Hebrew …, priority 2015, dated 2026).
